Laboratory results reported in ChEMBL document CHEMBL3045628, “Quantitative structureactivity relationships studies for prediction of antimicrobial activity of synthesized disulfonamide derivatives” (2011).

Legend:
Type in all cases: functional
Escherichia coli = experiment: Antimicrobial activity against Escherichia coli ATCC 11230 after 24 hr by broth microdilution assay
Bacillus cereus = experiment: Antimicrobial activity against Bacillus cereus RSKK 863 after 24 hr by broth microdilution assay
Staphylococcus aureus = experiment: Antimicrobial activity against Staphylococcus aureus ATCC 25923 after 24 hr by broth microdilution assay

Row | Structure (SMILES) | -logMIC (Escherichia coli) | -logMIC (Bacillus cereus) | -logMIC (Staphylococcus aureus)
1 | Cc1cccc(S(=O)(=O)NCCNS(=O)(=O)c2cccc(C)c2)c1 | 3.58 | 3.48 | 3.522
2 | O=S(=O)(NCCCCCNS(=O)(=O)c1ccccc1)c1ccccc1 | 3.496 | 3.2 | 3.38
3 | O=S(=O)(NCCNS(=O)(=O)c1ccccc1)c1ccccc1 | 3.51 | 3.37 | 3.38
4 | Cc1ccc(S(=O)(=O)NCCCNS(=O)(=O)c2ccc(C)cc2)cc1 | 3.52 | 3.38 | 3.3
5 | Cc1ccc(S(=O)(=O)NCCNS(=O)(=O)c2ccc(C)cc2)cc1 | 3.53 | 3.4 | 3.4
6 | COc1ccccc1S(=O)(=O)NCCCNS(=O)(=O)c1ccccc1OC | 3.711 | 3.6 | 3.55
7 | O=S(=O)(NCCCNS(=O)(=O)c1ccccc1)c1ccccc1 | 3.49 | 3.36 | 3.285
8 | O=S(=O)(NCCCCNS(=O)(=O)c1ccccc1)c1ccccc1 | 3.48 | 3.358 | 3.24
9 | Cc1ccc(S(=O)(=O)NCCCCNS(=O)(=O)c2ccc(C)cc2)cc1 | 3.5 | 3.35 | 3.26
10 | Cc1ccccc1S(=O)(=O)NCCNS(=O)(=O)c1ccccc1C | 3.7 | 3.56 | 3.638
11 | Cc1ccccc1S(=O)(=O)NCCCNS(=O)(=O)c1ccccc1C | 3.68 | 3.542 | 3.6
12 | Cc1ccccc1S(=O)(=O)NCCCCNS(=O)(=O)c1ccccc1C | 3.64 | 3.505 | 3.54
13 | Cc1cccc(S(=O)(=O)NCCCNS(=O)(=O)c2cccc(C)c2)c1 | 3.57 | 3.44 | 3.48
14 | Cc1cccc(S(=O)(=O)NCCCCNS(=O)(=O)c2cccc(C)c2)c1 | 3.55 | 3.41 | 3.47
15 | COc1ccc(S(=O)(=O)NCCNS(=O)(=O)c2ccc(OC)cc2)cc1 | 3.56 | 3.46 | 3.49
16 | CS(=O)(=O)NCCNS(C)(=O)=O | 2.99 | 2.876 | 2.99
17 | CS(=O)(=O)NCCCNS(C)(=O)=O | 2.97 | 2.864 | 2.925

Row | Structure (SMILES) | -logMIC (Escherichia coli) | -logMIC (Bacillus cereus) | -logMIC (Staphylococcus aureus)
18 | CS(=O)(=O)NCCCCNS(C)(=O)=O | 2.95 | 2.84 | 2.9
19 | CS(=O)(=O)NCCCCCNS(C)(=O)=O | 2.94 | 2.828 | 2.88
20 | CCS(=O)(=O)NCCNS(=O)(=O)CC | 2.72 | 2.66 | 2.66
21 | CCS(=O)(=O)NCCCNS(=O)(=O)CC | 2.7 | 2.642 | 2.642
22 | CCS(=O)(=O)NCCCCNS(=O)(=O)CC | 2.69 | 2.638 | 2.637
23 | CCS(=O)(=O)NCCCCCNS(=O)(=O)CC | 2.67 | 2.58 | 2.61
24 | COc1ccc(S(=O)(=O)NCCCNS(=O)(=O)c2ccc(OC)cc2)cc1 | 3.511 | 3.42 | 3.46
25 | CCCS(=O)(=O)NCCCCCNS(=O)(=O)CCC | 3.191 | 2.78 | 2.96
26 | COc1cccc(S(=O)(=O)NCCNS(=O)(=O)c2cccc(OC)c2)c1 | 3.6 | 3.58 | 3.52
27 | COc1cccc(S(=O)(=O)NCCCNS(=O)(=O)c2cccc(OC)c2)c1 | 3.59 | 3.55 | 3.5
28 | COc1ccccc1S(=O)(=O)NCCNS(=O)(=O)c1ccccc1OC | 3.72 | 3.66 | 3.58
29 | CCCS(=O)(=O)NCCCNS(=O)(=O)CCC | 3.104 | 3.058 | 3.009
30 | CCCS(=O)(=O)NCCCCNS(=O)(=O)CCC | 3.119 | 2.95 | 2.933
31 | CCCCS(=O)(=O)NCCNS(=O)(=O)CCCC | 3.12 | 2.83 | 2.974
32 | CCCCS(=O)(=O)NCCCNS(=O)(=O)CCCC | 3.116 | 2.917 | 2.861
33 | CCCCS(=O)(=O)NCCCCNS(=O)(=O)CCCC | 2.857 | 2.85 | 2.829
34 | CCCS(=O)(=O)NCCNS(=O)(=O)CCC | 3.258 | 3.179 | 3.003
